Measurements: paper PMC3906421 (Journal of medicinal chemistry, 2013)

Biological target: HIV-1 reverse transcriptase (RT35A, wild type) (Human immunodeficiency virus type 1 group M subtype B, UniProt P03366)
Assay: JDAM dual activity monitor RT activity assay
Format: biochemical
Conditions: for ligand efficiency: LE = -RTln(IC50)/NHA

How did the ligand efficiency turn out when `Oc1ccc(OC(F)(F)F)cc1` [compound 3, 4-(trifluoromethoxy)phenol] was run?
Its ligand efficiency is 0.37 kcal/mol●NHA.

With `CN(CC(=O)N1CCCc2ccccc21)Cc1nc(=O)c2ccccc2[nH]1` [compound 8, 2-(((2-(3,4-dihydroquinolin-1(2H)-yl)-2-oxoethyl)(methyl)amino)methyl)quinazolin-4(1H)-one] as the compound, how does the ligand efficiency read?
Its ligand efficiency is 0.19 kcal/mol●NHA.

`CCOC(=O)c1cnn2ccccc12` [compound 1, ethyl pyrazolo[1,5-a]pyridine-3-carboxylate] was tested. Which ligand efficiency did it give?
Its ligand efficiency is 0.34 kcal/mol●NHA.

How did the “inhibition (in words)” value (at 1 mM, JDAM assay) turn out when `NCc1ccc(OC(F)(F)F)cc1` [compound 2, 4-(trifluoromethoxy)benzylamine] was run?
Its value is “no detectable inhibition”.
